Measurements published in US9765075B2, “Substituted bridged urea analogs as sirtuin modulators” (GLAXOSMITHKLINE LLC, priority 2013, dated 2017).

Biological target: T1, SIRT1 (Homo sapiens, UniProt Q96EB6)
T1 sequence (Q96EB6 1-747): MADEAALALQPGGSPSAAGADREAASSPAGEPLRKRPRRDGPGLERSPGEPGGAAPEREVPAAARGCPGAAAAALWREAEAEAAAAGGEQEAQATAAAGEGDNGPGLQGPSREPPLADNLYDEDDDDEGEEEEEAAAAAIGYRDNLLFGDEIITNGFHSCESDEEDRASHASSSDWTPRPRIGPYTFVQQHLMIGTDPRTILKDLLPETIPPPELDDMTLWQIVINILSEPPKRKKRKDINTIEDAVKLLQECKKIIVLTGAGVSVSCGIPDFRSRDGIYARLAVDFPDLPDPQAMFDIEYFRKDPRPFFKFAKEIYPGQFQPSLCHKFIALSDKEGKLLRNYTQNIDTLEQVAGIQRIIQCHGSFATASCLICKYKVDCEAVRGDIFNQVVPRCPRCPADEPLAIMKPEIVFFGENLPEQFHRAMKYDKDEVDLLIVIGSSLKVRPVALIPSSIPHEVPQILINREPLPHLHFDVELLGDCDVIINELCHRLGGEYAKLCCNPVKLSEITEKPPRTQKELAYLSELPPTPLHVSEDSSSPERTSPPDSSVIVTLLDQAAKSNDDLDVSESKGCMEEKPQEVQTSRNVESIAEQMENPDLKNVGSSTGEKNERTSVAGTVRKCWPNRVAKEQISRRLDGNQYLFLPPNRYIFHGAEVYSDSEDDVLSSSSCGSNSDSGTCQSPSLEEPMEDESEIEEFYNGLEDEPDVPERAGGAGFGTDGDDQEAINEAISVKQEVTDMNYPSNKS
Assay: Trp mass spectrometry assay (SIRT1 activation)
Type: biochemical
Details: Trp peptide substrate; for Tryp AVG EC1.5 (μM): concentration of test compound that results in 150% activation of SIRT1; for Emax: percent maximum fold activation of SIRT1, read-out: Tryp % Fold Act
How it was run: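 Activation is expressed as EC1.5, the concentration raising activity 50% above DMSO control, and as maximum percent of control. Mass-spec readout was OAADPR or deacetylated Trp peptide after a formic-acid-quenched 25-min, 25 °C reaction: 10 nM bacterially expressed His-SIRT1, 0.5 μM acetyl-p53-derived peptide, 120 μM NAD+, pH 7.5 HEPES with […].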

| Tryp AVG EC1.5 (μM) | Emax [%] | Structure (SMILES) |
| --- | --- | --- |
| B (EC1.5 1-25 μM) | ≥ 150 | O=C(Nc1cccnc1)N1c2nc(-c3cncc(Cl)c3)ccc2N2CCC1CC2 [Example 544] |
| B (EC1.5 1-25 μM) | ≥ 150 | O=C(Nc1cncc(F)c1)N1c2nc(-c3cncc(Cl)c3)ccc2N2CCC1CC2 [Example 545] |
| C (EC1.5>25 μM) | < 150 | O=C(CCCCCNC(=O)c1ccc(-c2c3ccc(=O)cc-3oc3cc(O)ccc23)c(C(=O)O)c1)NCc1ccc(NC(=O)N2c3nc(-c4cccc(C(F)(F)F)c4)ccc3N3CC[C@H]2C3)cc1 [Example 547] |
| B (EC1.5 1-25 μM) | ≥ 150 | CC1(CCC(=O)NCc2ccc(NC(=O)N3c4nc(-c5cccc(C(F)(F)F)c5)ccc4N4CC[C@H]3C4)cc2)N=N1 [Example 548] |
| B (EC1.5 1-25 μM) | ≥ 150 | O=C(Nc1cccnc1)N1c2nc(-c3cnn(-c4ccccc4)c3)ccc2N2CC[C@H]1C2 [Example 549] |
| B (EC1.5 1-25 μM) | ≥ 150 | O=C(Nc1cnccn1)N1c2nc(-c3cncc(Cl)c3)ccc2N2CCC1CC2 [Example 550] |
| B (EC1.5 1-25 μM) | ≥ 150 | O=C(Nc1ccccn1)N1c2nc(-c3cncc(Cl)c3)ccc2N2CCC1CC2 [Example 551] |
| C (EC1.5>25 μM) | < 150 | COc1cc(NC(=O)N2c3nc(-c4cncc(Cl)c4)ccc3N3CCC2CC3)ncn1 [Example 552] |
| B (EC1.5 1-25 μM) | ≥ 150 | COc1cc(NC(=O)N2c3nc(-c4cncc(Cl)c4)ccc3N3CCC2CC3)nc(OC)n1 [Example 553] |
| B (EC1.5 1-25 μM) | ≥ 150 | Cc1nc(NC(=O)N2c3nc(-c4cncc(Cl)c4)ccc3N3CCC2CC3)sc1C [Example 554] |
| B (EC1.5 1-25 μM) | ≥ 150 | O=C(Nc1cnccn1)N1c2nc(-c3cncc(F)c3)ccc2N2CCC1CC2 [Example 555] |
| A (EC1.5<1 μM) | ≥ 150 | O=C(Nc1cccnc1)N1c2nc(-c3cncc(C(F)(F)F)c3)ccc2N2CC[C@H]1C2 [Example 556] |
| A (EC1.5<1 μM) | ≥ 150 | N#Cc1cncc(-c2ccc3c(n2)N(C(=O)Nc2ccccn2)[C@H]2CCCN3C2)c1 [Example 557] |
| B (EC1.5 1-25 μM) | ≥ 150 | N#Cc1cncc(-c2ccc3c(n2)N(C(=O)Nc2ccncn2)[C@H]2CCCN3C2)c1 [Example 558] |
| A (EC1.5<1 μM) | ≥ 150 | O=C(Nc1cncc(F)c1)N1c2nc(-c3cccc(N4CCOCC4)c3)ccc2N2CCC[C@H]1C2 [Example 559] |
| B (EC1.5 1-25 μM) | ≥ 150 | O=C(Nc1cnccn1)N1c2nc(-c3cccc(N4CCOCC4)c3)ccc2N2CCC[C@H]1C2 [Example 560] |
| B (EC1.5 1-25 μM) | ≥ 150 | Cc1cc(-c2ccc3c(n2)N(C(=O)Nc2cnc(OC[C@@H](O)CO)cn2)[C@H]2CCN3C2)ccn1 [Example 561] |

Further lines, the compound ahead of its results:

| Structure (SMILES) | Tryp AVG EC1.5 (μM) | Emax [%] |
| --- | --- | --- |
| COc1cc(NC(=O)N2c3nc(-c4cnccc4C)ccc3N3CCC[C@H]2C3)ncn1 [Example 511] | C (EC1.5>25 μM) | < 150 |
| Cc1cncc(-c2ccc3c(n2)N(C(=O)Nc2cnccn2)[C@H]2CCCN3C2)c1 [Example 512] | B (EC1.5 1-25 μM) | ≥ 150 |
| Cc1ccncc1-c1ccc2c(n1)N(C(=O)Nc1cnccn1)[C@H]1CCCN2C1 [Example 513] | C (EC1.5>25 μM) | ≥ 150 |
| Cc1ccc(-c2ccc3c(n2)N(C(=O)Nc2cccnc2)[C@H]2CCCN3C2)cn1 [Example 514] | B (EC1.5 1-25 μM) | ≥ 150 |
| Cc1cncc(-c2ccc3c(n2)N(C(=O)Nc2cccnc2)[C@H]2CCCN3C2)c1 [Example 515] | A (EC1.5<1 μM) | ≥ 150 |
| Cc1ccncc1-c1ccc2c(n1)N(C(=O)Nc1cccnc1)[C@H]1CCCN2C1 [Example 516] | B (EC1.5 1-25 μM) | ≥ 150 |
| Cc1cncc(-c2ccc3c(n2)N(C(=O)Nc2ccncn2)[C@H]2CCCN3C2)c1 [Example 517] | A (EC1.5<1 μM) | ≥ 150 |
| Cc1ccncc1-c1ccc2c(n1)N(C(=O)Nc1ccncn1)[C@H]1CCCN2C1 [Example 518] | C (EC1.5>25 μM) | < 150 |
| Cc1cncc(-c2ccc3c(n2)N(C(=O)Nc2cccnn2)[C@H]2CCCN3C2)c1 [Example 519] | A (EC1.5<1 μM) | ≥ 150 |
| Cc1ccncc1-c1ccc2c(n1)N(C(=O)Nc1cccnn1)[C@H]1CCCN2C1 [Example 520] | C (EC1.5>25 μM) | ≥ 150 |
| O=C(Nc1cncc(F)c1)N1c2nc(-c3cccc(Cl)c3)ccc2N2CCC1CC2 [Example 521] | B (EC1.5 1-25 μM) | ≥ 150 |
| COc1cc(NC(=O)N2c3nc(-c4cccc(Cl)c4)ccc3N3CCC2CC3)ncn1 [Example 522] | B (EC1.5 1-25 μM) | ≥ 150 |
| COc1cc(NC(=O)N2c3nc(-c4cccc(Cl)c4)ccc3N3CCC2CC3)nc(OC)n1 [Example 523] | A (EC1.5<1 μM) | ≥ 150 |
| Cn1nccc1-c1ccc2c(n1)N(C(=O)Nc1cccnc1)[C@H]1CCN2C1 [Example 524] | B (EC1.5 1-25 μM) | ≥ 150 |
| Cc1n[nH]c(C)c1-c1ccc2c(n1)N(C(=O)Nc1cccnc1)[C@H]1CCN2C1 [Example 525] | B (EC1.5 1-25 μM) | ≥ 150 |
| O=C(Nc1cccnc1)N1c2nc(-c3cncc(Cl)c3)ccc2N2CC[C@H]1C2 [Example 526] | A (EC1.5<1 μM) | ≥ 150 |

| Structure (SMILES) | Tryp AVG EC1.5 (μM) | Emax [%] |
| --- | --- | --- |
| COc1cc(NC(=O)N2c3nc(-c4cccc(N5CCOCC5)c4)ccc3N3CCC[C@H]2C3)ncn1 [Example 528] | B (EC1.5 1-25 μM) | ≥ 150 |
| O=C(Nc1ccncn1)N1c2nc(-c3cccc(N4CCOCC4)c3)ccc2N2CCC[C@H]1C2 [Example 529] | B (EC1.5 1-25 μM) | ≥ 150 |
| O=C1C=CC2=C(c3ccc(NC(=S)NCc4ccc(NC(=O)N5c6nc(-c7cccc(C(F)(F)F)c7)ccc6N6CC[C@H]5C6)cc4)cc3C(=O)O)C3C=CC(O)=CC3OC2=C1 (some centres unmarked) [Example 530] | A (EC1.5<1 μM) | ≥ 150 |
| Cc1c(-c2ccc3c(n2)N(C(=O)Nc2ccccn2)[C@H]2CCN3C2)cnn1C [Example 531] | B (EC1.5 1-25 μM) | ≥ 150 |
| Cc1c(-c2ccc3c(n2)N(C(=O)Nc2cnccn2)[C@H]2CCN3C2)cnn1C [Example 532] | B (EC1.5 1-25 μM) | ≥ 150 |
| O=C(Nc1ccccn1)N1c2nc(-c3cccc(Cl)c3)ccc2N2CCC1CC2 [Example 533] | B (EC1.5 1-25 μM) | ≥ 150 |
| O=C(Nc1ccncn1)N1c2nc(-c3cccc(Cl)c3)ccc2N2CCC1CC2 [Example 534] | B (EC1.5 1-25 μM) | ≥ 150 |
| N#Cc1cncc(-c2ccc3c(n2)N(C(=O)Nc2cncc(F)c2)[C@H]2CCCN3C2)c1 [Example 535] | B (EC1.5 1-25 μM) | ≥ 150 |
| O=C(Nc1ccccn1)N1c2nc(-c3cccc(N4CCOCC4)c3)ccc2N2CCC[C@H]1C2 [Example 536] | B (EC1.5 1-25 μM) | ≥ 150 |
| Cc1nc(NC(=O)N2c3nc(-c4cccc(N5CCOCC5)c4)ccc3N3CCC[C@H]2C3)sc1C [Example 537] | B (EC1.5 1-25 μM) | ≥ 150 |
| O=C(Nc1cccnc1)N1c2nc(-c3cccc(N4CCOCC4)c3)ccc2N2CCC[C@H]1C2 [Example 538] | A (EC1.5<1 μM) | ≥ 150 |
| O=C(Nc1cccnn1)N1c2nc(-c3cccc(N4CCOCC4)c3)ccc2N2CCC[C@H]1C2 [Example 539] | B (EC1.5 1-25 μM) | ≥ 150 |
| Cc1cc(NC(=O)N2c3nc(-c4cccc(C(F)(F)F)c4)ccc3N3CC[C@H]2C3)cc(Br)n1 [Example 540] | A (EC1.5<1 μM) | ≥ 150 |
| O=C(Nc1ccnc(Br)c1)N1c2nc(-c3cccc(C(F)(F)F)c3)ccc2N2CC[C@H]1C2 [Example 541] | A (EC1.5<1 μM) | ≥ 150 |
| O=C(Nc1cncc(Br)c1)N1c2nc(-c3cccc(C(F)(F)F)c3)ccc2N2CC[C@H]1C2 [Example 542] | A (EC1.5<1 μM) | ≥ 150 |
| O=C(Nc1cnccn1)N1c2nc(-c3cccc(Cl)c3)ccc2N2CCC1CC2 [Example 543] | B (EC1.5 1-25 μM) | ≥ 150 |
